Measured values from publication PMC10177510, “A Multicenter, Open-Label, Phase I/II Study of FN-1501 in Patients with Advanced Solid Tumors” (Cancers, 2023).
≈ marks a conversion by molar mass, not a printed value.

How the values were obtained:
[1] = Plasma pharmacokinetics of FN-1501 and metabolite M3 in patients (LC/MS-MS, noncompartmental); format: in vivo, human; conditions: for AUClast / AUC∞ / CL / Cmax / MRT∞ / Vss / Vz / t1/2 / tmax: mean; for Clearance: discussion; for Css,u: 260 mg
Experimental: For PK assessment, blood samples were collected pre-dose and 0.083, 0.25, 0.5, 1, 2, 4, 6, 8, 12, 24, and 48 h post-dose on Cycle 1, Day 1, and pre-dose on Cycle 2, Day 1. Plasma concentrations of FN-1501 and its metabolite M3 were analyzed at KCAS in Shawnee, KS, using a validated liquid chromatography/tandem mass spectrometry method. Primary pharmacokinetic (PK) endpoints were derived from FN-1501 and M3 concentration–time profiles and were analyzed using standard noncompartmental methods of analysis (Phoenix version 8).

Unbound fraction = format: in vitro ADME
MV-4-11 = conditions: ref data on file, Fosun Pharma; cited from earlier work

## CN1CCN(Cc2ccc(NC(=O)c3[nH]ncc3Nc3ncnc4[nH]ccc34)cc2)CC1 [FN-1501]
[1]; 54 mg IV
  AUClast: 0.773 ± 0.18 µg·h/mL
  AUC∞: 0.868 ± 0.181 µg·h/mL
  CL: 63.9 ± 12.4 L/h
  Cmax: 0.323 ± 0.0556 µg/mL
  MRT∞: 16.9 ± 7.34 h
  Vss: 1080 ± 516 L
  Vz: 1820 ± 740 L
  t1/2: 19.6 ± 6.44 h
  tmax: 1.1 ± 0.05 h
[1]; 72 mg IV
  AUClast: 0.742 ± 0.275 µg·h/mL
  AUC∞: 0.823 ± 0.292 µg·h/mL
  CL: 94.2 ± 28.8 L/h
  Cmax: 0.161 ± 0.0677 µg/mL
  MRT∞: 16.8 ± 1.12 h
  Vss: 1580 ± 489 L
  Vz: 2370 ± 833 L
  t1/2: 17.2 ± 1.58 h
  tmax: 1.3 ± 0.24 h
[1]; 96 mg IV
  AUClast: 1.42 ± 0.236 µg·h/mL
  AUC∞: 1.65 ± 0.229 µg·h/mL
  CL: 59.1 ± 8.20 L/h
  Cmax: 0.494 ± 0.289 µg/mL
  MRT∞: 15.4 ± 6.58 h
  Vss: 921 ± 425 L
  Vz: 1410 ± 682 L
  t1/2: 16.1 ± 6.28 h
  tmax: 1.1 ± 0.13 h
[1]; 128 mg IV
  AUClast: 1.73 ± 0.85 µg·h/mL
  AUC∞: 1.98 ± 1.12 µg·h/mL
  CL: 79.9 ± 4.21 L/h
  Cmax: 0.533 ± 0.344 µg/mL
  MRT∞: 18.1 ± 5.53 h
  Vss: 1320 ± 473 L
  Vz: 1790 ± 366 L
  t1/2: 17.8 ± 7.00 h
  tmax: 1.1 ± 0.11 h
[1]; 170 mg IV
  AUClast: 3.34 ± 1.5 µg·h/mL
  AUC∞: 3.76 ± 1.98 µg·h/mL
  CL: 56.5 ± 31.5 L/h
  Cmax: 0.955 ± 0.33 µg/mL
  MRT∞: 15.8 ± 7.89 h
  Vss: 757 ± 218 L
  Vz: 1120 ± 419 L
  t1/2: 15.0 ± 3.64 h
  tmax: 1.3 ± 0.26 h
[1]; 170 mg
  Clearance: 50 L/h
[1]; 226 mg IV
  AUClast: 5.62 ± 1.39 µg·h/mL
  AUC∞: 6.07 ± 1.67 µg·h/mL
  CL: 39.4 ± 0.17 L/h
  Cmax: 1.18 ± 0.232 µg/mL
  MRT∞: 15.2 ± 3.92 h
  Vss: 569 ± 30.8 L
  Vz: 787 ± 139 L
  t1/2: 14.2 ± 2.2 h
  tmax: 1.2 ± 0.02 h
[1]; 226 mg
  Clearance: 38 L/h
[1]; 48 h dosing interval
  Css,u: 0.037 µg/mL
[1]; 72 h dosing interval
  Css,u: 0.025 µg/mL
[1]; 2.5 to 226 mg
  AUC increase with dose: greater than dose-proportional
  Cmax increase with dose: roughly dose-proportional
[1]; 48 h post-dose
  Drug concentration at end of dosing interval: approximately 20 ng/mL
Unbound fraction
  Unbound fraction: 30%
MV-4-11
  IC50: 2.6 ng/mL (≈ 6.03 nM)
